Reference: patent publication US8124601B2, “Compounds for the treatment of Hepatitis C” (Bristol-Myers Squibb Company, priority 2007, dated 2012)
Where two headings read alike, the source gives them in different places.

Legend:
HCV NS5B = target: T1, HCV NS5B (Hepatitis C virus genotype 1b, UniProt Q9WMX2); test: Modified HCV NS5B RdRp enzyme assay (preincubation protocol); assay type: biochemical
T1 construct: The protein was expressed with an 18 amino acid C-terminal truncation to enhance the solubility; made in house; host or cells: E. coli BL21(DE3)
Experimental: HCV NS5B RdRp cloning, expression, and purification. The cDNA encoding the NS5B protein of HCV, genotype 1b, was cloned into the pET21a expression vector. The protein was expressed with an 18 amino acid C-terminal truncation to enhance the solubility. The E. coli competent cell line BL21(DE3) was used for expression of the protein. Cultures were grown at 37° C. for ˜4 hours until the cultures reached an optical density of 2.0 at 600 nm. The cultures were cooled to 20° C. and induced with 1 mM IPTG. Fresh ampicillin was added to a final concentration of 50 μg/ml and the cells were grown overnight at 20° C.
Cell pellets (3 L) were lysed for purification to yield 15-24 mgs of purified NS5B. The lysis buffer consisted of 20 mM Tris-HCl, pH 7.4, 500 mM NaCl, 0.5% triton X-100, 1 mM DTT, 1 mM EDTA, 20% glycerol, 0.5 mg/ml lysozyme, 10 mM MgCl2, 15 ug/ml deoxyribonuclease I, and Complete TM protease inhibitor tablets (Roche). After addition of the lysis buffer, frozen cell pellets were resuspended using a tissue homogenizer. To reduce the viscosity of the sample, aliquots of the lysate were sonicated on ice using a microtip attached to a Branson sonicator. The sonicated lysate was centrifuged at 100,000×g for 1 hr at 4° C. and filtered through a 0.2 μm filter unit (Corning).
The protein was purified using two sequential chromatography steps: Heparin sepharose CL-6B and polyU sepharose 4B (Pharmacia). The chromatography buffers were identical to the lysis buffer but contained no lysozyme, deoxyribonuclease I, MgCl2 or protease inhibitor and the NaCl concentration of the buffer was adjusted according to the requirements for charging the protein onto the column. Each column was eluted with a NaCl gradient which varied in length from 5-50 column volumes depending on the column type. After the final chromatography step, the resulting purity of the enzyme is >90% based on SDS-PAGE analysis. The enzyme was aliquoted and stored at −80° C.
Standard HCV NS5B RdRp enzyme assay. HCV RdRp genotype 1b assays were run in a final volume of 60 μl in 96 well plates (Corning 3600). The assay buffer is composed of 20 mM Hepes, pH 7.5, 2.5 mM KCl, 2.5 mM MgCl2, 1 mM DTT, 1.6 U RNAse inhibitor (Promega N2515), 0.01 mg/ml BSA (Sigma B6917), and 2% glycerol. All compounds were serially diluted (3-fold) in DMSO and diluted further in water such that the final concentration of DMSO in the assay was 2%. HCV RdRp genotype 1b enzyme was used at a final concentration of 28 nM. A polyA template was used at 6 nM, and a biotinylated oligo-dT12 primer was used at 180 nM final concentration. Template was obtained commercially (Amersham 27-4110). Biotinylated primer was prepared by Sigma Genosys. 3H-UTP was used at 0.6 μCi (0.29 μM total UTP). Reactions were initiated by the addition of enzyme, incubated at 30° C. for 60 min, and stopped by adding 25 μl of 50 mM EDTA containing SPA beads (4 μg/μl, Amersham RPNQ 0007). Plates were read on a Packard Top Count NXT after >1 hr incubation at room temperature.
Modified HCV NS5B RdRp enzyme assay. A modified enzyme assay was performed essentially as described for the standard enzyme assay except for the following: The biotinylated oligo dT12 primer was precaptured on streptavidin-coated SPA beads by mixing primer and beads in assay buffer and incubating at room temperature for one hour. Unbound primer was removed after centrifugation. The primer-bound beads were resuspended in 20 mM Hepes buffer, pH 7.5 and used in the assay at final concentrations of 20 nM primer and 0.67 μg/μl beads. Order of addition in the assay: enzyme (1.75 nM) was added to diluted compound followed by the addition of a mixture of template (0.36 nM), 3H-UTP (0.6 μCi, 0.29 μM), and primer-bound beads, to initiate the reaction; concentrations given are final. Reactions were allowed to proceed for 4 hours at 30° C.
IC50 values for compounds were determined using seven different [I]. […]

HCV replicon cells = test: HCV replicon FRET assay; assay type: cell-based
Experimental: FRET Assay Preparation. The HCV FRET screening assay was performed in 96-well cell culture plates. The FRET peptide (Anaspec, Inc.) (Taliani et al., Anal. Biochem. 1996, 240, 60-67) contains a fluorescence donor, EDANS, near one end of the peptide and an acceptor, DABCYL, near the other end. The fluorescence of the peptide is quenched by […] resonance energy transfer (RET) between the donor and the acceptor, but as the NS3 protease cleaves the peptide the products are released from RET quenching and the fluorescence of the donor becomes apparent. The assay reagent was made as follows: 5× cell Luciferase cell culture lysis reagent from Promega (#E153A) diluted to 1× with dH2O, NaCl added to 150 mM final, the FRET peptide diluted to 20 μM final from a 2 mM stock.
To prepare plates, HCV replicon cells, with or without a Renilla luciferase reporter gene, were trypsinized and plated in a 96-well plate with titrated test compounds added in columns 3 through 12; columns 1 and 2 contained a control compound (HCV control inhibitor), and the bottom row contained cells with DMSO only. The plates were then placed in a CO2 incubator at 37° C.
Assays. Subsequent to addition of the test compounds described above (FRET Assay Preparation), at various times the plate was removed and Alamar blue solution (Trek Diagnostics, #00-100) was added to measure cellular toxicity. After reading in a Cytoflour 4000 instrument (PE Biosystems), plates were rinsed with PBS and then used for FRET assay by the addition of 30 ul of the FRET peptide assay reagent described above (FRET Assay Preparation) per well. The plate was then placed into the Cytoflour 4000 instrument which had been set to 340 excite/490 emission, automatic mode for up to 20 cycles and the plate read in a kinetic mode. Typically, the signal to noise using an endpoint analysis after the reads was at least three-fold. Alternatively, after Alamar blue reading, plates were rinsed with PBS, then used for luciferase assay using the Promega Dual-Glo Luciferase Assay System or the Promega EnduRen Live Cell Substrate assay.
Compound analysis was performed by quantification of the relative HCV replicon inhibition and the relative cytotoxicity values. To calculate cytoxicity values, the average Alamar Blue fluorescence signals from the control wells were set as 100% non-toxic. The individual signals in each of the compound test wells were then divided by the average control signal and multiplied by 100% to determine […]. To calculate the HCV replicon inhibition values, an average background value was obtained from the two wells containing the highest amount of HCV control inhibitor at the end of the assay period. These numbers were similar to those obtained from naïve Huh-7 cells. The background numbers were then subtracted from the average signal obtained from the control wells and this number was used as 100% activity. The individual signals in each of the compound test wells were then divided by the averaged control values after background subtraction and multiplied by 100% to determine percent activity. EC50 values were calculated as the concentration which caused a 50% reduction in FRET or luciferase activity. The two numbers generated for the compound plate, percent cytoxicity and percent activity, were used to determine compounds of interest for further analysis.

T1 sequence (Q9WMX2 2420-2992): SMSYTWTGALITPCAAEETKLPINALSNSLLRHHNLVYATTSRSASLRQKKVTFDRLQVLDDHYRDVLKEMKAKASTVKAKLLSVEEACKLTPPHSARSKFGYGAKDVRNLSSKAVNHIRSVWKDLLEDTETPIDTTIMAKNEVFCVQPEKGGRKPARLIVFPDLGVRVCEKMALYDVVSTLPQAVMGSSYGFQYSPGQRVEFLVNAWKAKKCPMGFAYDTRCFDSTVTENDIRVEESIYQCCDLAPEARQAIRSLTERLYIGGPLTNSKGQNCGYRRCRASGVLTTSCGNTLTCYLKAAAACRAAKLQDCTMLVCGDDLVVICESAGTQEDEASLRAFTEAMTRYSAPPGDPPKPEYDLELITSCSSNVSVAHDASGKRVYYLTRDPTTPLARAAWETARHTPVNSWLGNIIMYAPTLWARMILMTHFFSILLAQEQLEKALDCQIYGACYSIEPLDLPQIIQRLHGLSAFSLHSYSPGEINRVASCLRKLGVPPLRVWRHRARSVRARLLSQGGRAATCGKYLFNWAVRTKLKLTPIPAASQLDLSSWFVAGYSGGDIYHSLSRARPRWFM

Row | Compound | IC50 (HCV NS5B) [nM] | EC50 (HCV replicon cells; Hepatitis C virus) [nM] | EC50 (HCV replicon cells) [nM]
1 | COc1ccc2c(c1)C1CC1(C(=O)N1CCC3(CCN(C(=O)OC(C)(C)C)C3)C1)Cn1c-2c(C2CCCCC2)c2ccc(C(=O)NS(=O)(=O)C(C)C)cc21 (stereo not drawn) | 4.58 to 500 | 4.58 to 500 | –
2 | COc1ccc2c(c1)C1CC1(C(=O)N1CCC3(CCNC3)C1)Cn1c-2c(C2CCCCC2)c2ccc(C(=O)NS(=O)(=O)C(C)C)cc21 (stereo not drawn) | 4.58 to 500 | 4.58 to 500 | –
3 | COc1ccc2c(c1)C1CC1(C(=O)N1CCCC3(CCN(C)C3=O)C1)Cn1c-2c(C2CCCCC2)c2ccc(C(=O)NS(=O)(=O)C3CC3)cc21 (stereo not drawn) | 4.58 to 500 | 4.58 to 500 | –
4 | COc1ccc2c(c1)C1CC1(C(=O)N1CCC3(CCCN3C(=O)OC(C)(C)C)CC1)Cn1c-2c(C2CCCCC2)c2ccc(C(=O)NS(=O)(=O)C(C)C)cc21 (stereo not drawn) | 4.58 to 500 | 4.58 to 500 | –
5 | CCCS(=O)(=O)NC(=O)c1ccc2c(C3CCCCC3)c3n(c2c1)CC1(C(=O)N2CCC4(CCCN4C(=O)OC(C)(C)C)CC2)CC1c1cc(OC)ccc1-3 (stereo not drawn) | 4.58 to 500 | 4.58 to 500 | –
6 | COc1ccc2c(c1)C1CC1(C(=O)N1CCC3(CCCN3)CC1)Cn1c-2c(C2CCCCC2)c2ccc(C(=O)NS(=O)(=O)C(C)C)cc21 (stereo not drawn) | 4.58 to 500 | 4.58 to 500 | –
7 | CCCS(=O)(=O)NC(=O)c1ccc2c(C3CCCCC3)c3n(c2c1)CC1(C(=O)N2CCC4(CCCN4)CC2)CC1c1cc(OC)ccc1-3 (stereo not drawn) | 4.58 to 500 | 4.58 to 500 | –
8 | COc1ccc2c(c1)C1CC1(C(=O)N1CCC3(CCCN3C)CC1)Cn1c-2c(C2CCCCC2)c2ccc(C(=O)NS(=O)(=O)C(C)C)cc21 (stereo not drawn) | 4.58 to 500 | 4.58 to 500 | –
9 | CCCS(=O)(=O)NC(=O)c1ccc2c(C3CCCCC3)c3n(c2c1)CC1(C(=O)N2CCC4(CCCN4C)CC2)CC1c1cc(OC)ccc1-3 (stereo not drawn) | 4.58 to 500 | 4.58 to 500 | –
10 | COc1ccc2c(c1)C=C(C(=O)N1CCCC13CCN(C)CC3)Cn1c-2c(C2CCCCC2)c2ccc(C(=O)NS(=O)(=O)C(C)C)cc21 | 4.58 to 500 | 4.58 to 500 | –
11 | COc1ccc2c(c1)C1CC1(C(=O)N1CCCC13CCN(C)CC3)Cn1c-2c(C2CCCCC2)c2ccc(C(=O)NS(=O)(=O)C(C)C)cc21 (stereo not drawn) | 4.58 to 500 | 4.58 to 500 | –
12 | CCCS(=O)(=O)NC(=O)c1ccc2c(C3CCCCC3)c3n(c2c1)CC1(C(=O)N2CCCC24CCN(C)CC4)CC1c1cc(OC)ccc1-3 (stereo not drawn) | 4.58 to 500 | 4.58 to 500 | –
13 | COc1ccc2c(c1)C1CC1(C(=O)N1CCC3(CCCN3C(C)=O)CC1)Cn1c-2c(C2CCCCC2)c2ccc(C(=O)NS(=O)(=O)C(C)C)cc21 (stereo not drawn) | 4.58 to 500 | 4.58 to 500 | –
14 | CCCS(=O)(=O)NC(=O)c1ccc2c(C3CCCCC3)c3n(c2c1)CC1(C(=O)N2CCC4(CCCN4C(C)=O)CC2)CC1c1cc(OC)ccc1-3 (stereo not drawn) | 4.58 to 500 | 4.58 to 500 | –
15 | COc1ccc2c(c1)C1CC1(C(=O)N1CCNC3(CCCC3)C1)Cn1c-2c(C2CCCCC2)c2ccc(C(=O)NS(=O)(=O)C(C)C)cc21 (stereo not drawn) | 4.58 to 500 | 4.58 to 500 | –
16 | COc1ccc2c(c1)C1CC1(C(=O)N1CCNC3(CCCCC3)C1)Cn1c-2c(C2CCCCC2)c2ccc(C(=O)NS(=O)(=O)C(C)C)cc21 (stereo not drawn) | 4.58 to 500 | 4.58 to 500 | –
17 | CCCS(=O)(=O)NC(=O)c1ccc2c(C3CCCCC3)c3n(c2c1)CC1(C(=O)N2CCNC4(CCCC4)C2)CC1c1cc(OC)ccc1-3 (stereo not drawn) | 4.58 to 500 | 4.58 to 500 | –
18 | CCCS(=O)(=O)NC(=O)c1ccc2c(C3CCCCC3)c3n(c2c1)CC1(C(=O)N2CCNC4(CCCCC4)C2)CC1c1cc(OC)ccc1-3 (stereo not drawn) | 4.58 to 500 | 4.58 to 500 | –
19 | COc1ccc2c(c1)C1CC1(C(=O)N1CCN(C)C3(CCCC3)C1)Cn1c-2c(C2CCCCC2)c2ccc(C(=O)NS(=O)(=O)C(C)C)cc21 (stereo not drawn) | 4.58 to 500 | 4.58 to 500 | –
20 | COc1ccc2c(c1)C1CC1(C(=O)N1CCN(C)C3(CCCCC3)C1)Cn1c-2c(C2CCCCC2)c2ccc(C(=O)NS(=O)(=O)C(C)C)cc21 (stereo not drawn) | 4.58 to 500 | 4.58 to 500 | –
21 | CCCS(=O)(=O)NC(=O)c1ccc2c(C3CCCCC3)c3n(c2c1)CC1(C(=O)N2CCN(C)C4(CCCC4)C2)CC1c1cc(OC)ccc1-3 (stereo not drawn) | 4.58 to 500 | 4.58 to 500 | –
22 | COc1ccc2c(c1)C1CC1(C(=O)N1CCCC3(CCN(C)C3=O)C1)Cn1c-2c(C2CCCCC2)c2ccc(C(=O)NS(=O)(=O)C(C)C)cc21 (stereo not drawn) [drawing 21] | 4.58 to 500 | 4.58 to 500 | –
23 | COc1ccc2c(c1)C1CC1(C(=O)N1CCCC3(CCN(C)C3=O)C1)Cn1c-2c(C2CCCCC2)c2ccc(C(=O)NS(=O)(=O)C(C)C)cc21 (stereo not drawn) [drawing 22] | 4.58 to 500 | – | 4.58 to 500
24 | COc1ccc2c(c1)C1CC1(C(=O)N1CCCC3(CCN(C)C3)C1)Cn1c-2c(C2CCCCC2)c2ccc(C(=O)NS(=O)(=O)C(C)C)cc21 (stereo not drawn) [drawing 23] | 4.58 to 500 | 4.58 to 500 | –
25 | COc1ccc2c(c1)C1CC1(C(=O)N1CCCC3(CCN(C)C3)C1)Cn1c-2c(C2CCCCC2)c2ccc(C(=O)NS(=O)(=O)C(C)C)cc21 (stereo not drawn) [drawing 24] | 4.58 to 500 | – | 4.58 to 500
26 | CCCS(=O)(=O)NC(=O)c1ccc2c(C3CCCCC3)c3n(c2c1)CC1(C(=O)N2CCCC4(CCN(C)C4)C2)CC1c1cc(OC)ccc1-3 (stereo not drawn) [drawing 25] | 4.58 to 500 | 4.58 to 500 | –
27 | CCCS(=O)(=O)NC(=O)c1ccc2c(C3CCCCC3)c3n(c2c1)CC1(C(=O)N2CCCC4(CCN(C)C4)C2)CC1c1cc(OC)ccc1-3 (stereo not drawn) [drawing 26] | 4.58 to 500 | – | 4.58 to 500
